The values below come from US11419955B2, “Multimodal silica-based nanoparticles” (Sloan-Kettering Institute for Cancer Research, priority 2009, dated 2022).

One series concerns FAK pathway. The series is described as follows: Western blot of FAK pathway signaling in M21 cells. The series is classed as cell-based, human. The settings on record: M21 cells exposed to 100 nM cRGDY-PEG-C dots. As for the experimental part:
To determine whether […] integrin-binding cRGDY-PEG-C-dots modulates the activity of these pathways, we treated serum-deprived (0.2% FCS) M21 cells with 100 nM of cRGDY-PEG-C-dots for 2 hrs at 37° C.; serum-deprived cells treated with 0.2% FCS alone served as controls. […] These findings, depicted graphically as normalized intensity ratios, have been expressed relative to their respective total protein levels, and normalized to corresponding values measured under control conditions (FIG. 40C).
M21 cells (1×10^6 cells/six wells plate) were grown in six wells coated with collagen (10 mg/ml), and made quiescent by growing under serum-deprived conditions. The medium was then changed to 0.2% FCS, and different concentrations (25-400 nM) of cRGDY-PEG-C-dots were added (37° C., 0.5-8 hours). […] Protein concentrations were determined by the bicinchoninic acid assay (BCA, Thermo Scientific, Rockford, Ill.). […]
In order to quantify the differences in the size and intensity between Western blot bands, we performed densitometry of phosphorylated and total protein intermediates using Photoshop CS2 (Adobe, San Jose, Calif.). […]

For a further series, the system named is HUVEC cells. As to the kind of experiment: Migration assay, HUVEC cells. The settings on record: 400 nM particles, 24 hour, before and after addition of inhibitor. The series is classed as cell-based, human. As for the experimental part:
M21 cells: M21 cells were seeded (6×10^4 cells/well) using a migration kit (Oris™ Collagen I coated plate, […] TEC). Twenty-four hours after seeding the cells, stoppers in the plate were removed. Fresh culture media (100 μl) supplemented with 0.2% FBS was introduced and cRGDY-PEG-C-dots were added at several concentrations: 25, 100 and 400 nM. Every 24 hours thereafter, media was replaced, along with new particles, over a 72 hr time interval. Prior to incubating the plate at 37° C. overnight, time zero images were captured by the Axiovert 200M microscope (Carl Zeiss) using a 5× (0.15 NA) objective and using a scan slide module in the Metamorph software (molecular devices, PA). Serial microscopy was then performed and images captured every 24 hrs for a total of 96 hours post-incubation. The data were analyzed by using ImageJ software. […]
Phase contrast images captured for migration studies were analyzed using ImageJ 1.45s (National Institutes of Health, rsbweb.nih.gov/ij/) in order to quantify the extent of cell migration (i.e., area closure) for M21 cells and HUVECs. […] The enclosed area for each image was measured (pixels) and used to calculate percent closure relative to time zero (following particle addition and media replacement) as follows: difference in area at a given time point (24, 48, 72 or 96 hr) and at time zero divided by the same area at time zero multiplied by 100. […]

Series [1] deals with melanoma nodal metastases. The arrangement: species or system Sinclair miniature swine. The settings on record: in vivo.
Description: Spontaneous melanoma Sinclair miniature swine (10-12 kg, Sinclair Research Center, MO) were injected intravenously with 5 mCi ^18F-fluoro-deoxyglucose (^18F-FDG) for whole-body screening of nodal and/or organ metastases. Miniswine underwent 1-hr dynamic ^18F-FDG PET whole body PET scan using a clinical PET scanner 40 minutes after injection to screen for metastatic disease, followed by CT scan acquisition for anatomic localization. […]
Miniswine were taken to the operating room for identification of nodes. Optical fluorescence imaging was performed using large field-of-view near infrared fluorescence camera system, smaller field-of-view modified endoscope, and a modified stereomacroscope for obtaining higher resolution fluorescence images within the exposed surgical bed. […]
The primary melanoma skin lesion was excised, and an incision made to allow access to the sentinel node(s). […] Specimens were sent for histological assessment for metastases and optical confocal microscopy to confirm the presence of both malignancy and nanoparticle fluorescence.
Following harvest of the sentinel nodes, the entire lymph node basin was excised and further evaluated using histological methods (with immunohistochemical markers for melanoma as needed), fluorescence microscopy, and the hand-held PET probe for correlative purposes. […]
For series [2] the following is noted: Montet et al. 2006; cited from earlier work.

With `CS(=O)(=O)c1cccc(CNc2nc(Nc3ccc4c(c3)CCC(=O)N4)ncc2C(F)(F)F)c1` [PF-573228], the “Inhibition of MEK or Erk phosphorylation” value in the series on FAK pathway (250, 500 nM inhibitor) is reported as “observed only at the higher inhibitor concentration”. Moreover, in the series on FAK pathway (two inhibitor concentrations (250, 500 nM)), the “phosphorylation of FAK on Tyr397 and Src” value is “inhibition of the phosphorylation of FAK on Tyr^397 and Src”. For the same compound, in the series with HUVEC cells, the “Percentage change in mean areas of closure relative to controls” value is listed as “+3%”. For the compound ^18F-fluorodeoxyglucose [^18F-FDG], in series [1], the “discrimination of metastatic disease from inflammation” value was “failed to detect metastatic disease, while identifying inflammatory and other metabolically active sites”. Turning to cRGD, the “published blood T1/2 / blood residence half-time” value in series [2] is listed as “about 13 minutes”.
